Assay results: BindingDB's records for patent US20240262804 (Hansoh Bio, 2024)

Target: T1, Myosin-7 (Bos taurus, UniProt Q9BE39)
T1 construct: gene MYH7
Assay: Biochemical Assay
Description: In our experiments, bovine skinned cardiac myofibrils were isolated from the frozen bovine left ventricle as myosin's source in the ATPase assay. […] 75 μL of a solution containing bovine cardiac myofibrils, PK/LDH, and calcium were added to a 96 well plate for a 7 point dose-response. In some circumstances, 10 point-response was used to repeat the ATPase assays on compounds of interest. Compounds were added to the myofibrils solution and incubated for 5 minutes. The enzymatic reaction was started with the addition of 75 μL of a solution containing ATP, PEP, NADH, compounds, and calcium. The ATPase activity was measured by reading absorbance at 340 nm in a PerkinElmer Victor Nivo plate reader at 25° C. in kinetic mode for 15 minutes using clear bottom plates. The slopes of the absorbance changes as a function of time for the first 10 minutes were normalized to slopes on the control wells containing all reagents, including DMSO, but without compounds.

T1 sequence (Q9BE39 whole entry, looked up): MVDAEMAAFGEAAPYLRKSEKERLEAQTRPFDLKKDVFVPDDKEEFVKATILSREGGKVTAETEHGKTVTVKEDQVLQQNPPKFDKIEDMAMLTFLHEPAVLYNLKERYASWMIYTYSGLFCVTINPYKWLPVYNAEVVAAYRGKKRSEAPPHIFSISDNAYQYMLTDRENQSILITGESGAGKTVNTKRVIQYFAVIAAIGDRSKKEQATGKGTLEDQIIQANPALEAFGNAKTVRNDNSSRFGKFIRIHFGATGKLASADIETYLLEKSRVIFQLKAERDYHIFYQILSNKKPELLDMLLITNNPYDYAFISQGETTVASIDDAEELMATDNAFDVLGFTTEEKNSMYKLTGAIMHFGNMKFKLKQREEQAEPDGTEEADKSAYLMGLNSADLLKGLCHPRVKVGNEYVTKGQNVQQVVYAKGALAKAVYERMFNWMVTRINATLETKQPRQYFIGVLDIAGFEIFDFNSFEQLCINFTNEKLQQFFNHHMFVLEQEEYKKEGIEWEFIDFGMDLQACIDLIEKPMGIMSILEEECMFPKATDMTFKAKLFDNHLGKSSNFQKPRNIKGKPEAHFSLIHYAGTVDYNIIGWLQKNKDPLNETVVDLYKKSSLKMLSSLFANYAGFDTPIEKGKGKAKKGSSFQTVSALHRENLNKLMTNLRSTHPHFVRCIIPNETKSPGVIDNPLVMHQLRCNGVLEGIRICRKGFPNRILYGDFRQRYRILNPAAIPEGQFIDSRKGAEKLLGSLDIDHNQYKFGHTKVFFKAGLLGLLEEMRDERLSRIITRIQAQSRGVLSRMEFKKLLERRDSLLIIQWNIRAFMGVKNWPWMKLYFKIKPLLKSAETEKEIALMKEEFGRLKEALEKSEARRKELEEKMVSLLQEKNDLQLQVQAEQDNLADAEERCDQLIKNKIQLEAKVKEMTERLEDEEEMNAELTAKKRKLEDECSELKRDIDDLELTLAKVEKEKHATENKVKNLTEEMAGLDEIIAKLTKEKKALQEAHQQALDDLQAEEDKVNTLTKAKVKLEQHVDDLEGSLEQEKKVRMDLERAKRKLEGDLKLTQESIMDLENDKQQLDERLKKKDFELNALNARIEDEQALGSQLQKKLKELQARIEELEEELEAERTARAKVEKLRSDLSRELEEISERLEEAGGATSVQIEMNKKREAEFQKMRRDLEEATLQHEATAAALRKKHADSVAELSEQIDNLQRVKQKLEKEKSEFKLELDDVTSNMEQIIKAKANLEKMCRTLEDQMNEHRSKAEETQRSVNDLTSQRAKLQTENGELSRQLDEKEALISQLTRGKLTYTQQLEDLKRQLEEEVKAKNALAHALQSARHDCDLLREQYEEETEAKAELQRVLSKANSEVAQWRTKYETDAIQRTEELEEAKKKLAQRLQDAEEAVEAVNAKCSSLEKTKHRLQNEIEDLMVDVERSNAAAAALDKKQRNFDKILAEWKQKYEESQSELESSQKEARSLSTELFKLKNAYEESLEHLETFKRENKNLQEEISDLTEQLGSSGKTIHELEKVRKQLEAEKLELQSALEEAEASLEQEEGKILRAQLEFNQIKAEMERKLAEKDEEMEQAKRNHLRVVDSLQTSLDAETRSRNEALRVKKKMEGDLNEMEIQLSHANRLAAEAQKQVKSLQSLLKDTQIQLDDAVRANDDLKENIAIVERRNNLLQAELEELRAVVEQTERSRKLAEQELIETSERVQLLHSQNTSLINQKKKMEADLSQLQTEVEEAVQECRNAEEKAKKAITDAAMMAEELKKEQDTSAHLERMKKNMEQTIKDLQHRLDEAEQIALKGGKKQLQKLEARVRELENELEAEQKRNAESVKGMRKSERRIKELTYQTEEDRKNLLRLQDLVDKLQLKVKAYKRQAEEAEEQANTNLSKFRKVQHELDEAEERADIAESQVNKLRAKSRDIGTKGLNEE

| Structure (SMILES) | IC50 [nM] |
| --- | --- |
| Cc1cccc([C@H](C)Nc2nc(=O)n(C3CCOCC3)c(=O)[nH]2)c1 [US20240262804, Example 4] | 800 |
| CC(C)C(O)c1cccc([C@H](C)Nc2nc(=O)n(C3CCOCC3)c(=O)[nH]2)c1 (some centres undefined) [US20240262804, Example 9] | 1180 |
| Cc1nn(C)cc1-c1cccc([C@H](C)Nc2nc(=O)n(C3CCOCC3)c(=O)[nH]2)c1 [US20240262804, Example 5] | 3590 |
| C[C@H](Nc1nc(=O)n(-c2ccccc2)c(=O)[nH]1)C1CCCCC1 [US20240262804, Example 1] | 8050 |

Results, then the compound that gave them:

| IC50 [nM] | Structure (SMILES) |
| --- | --- |
| 2460 | C[C@H](Nc1nc(=O)n(C2CCOCC2)c(=O)[nH]1)c1cccc(C(C)(C)O)c1 [US20240262804, Example 8] |
| 1210 | C[C@H](Nc1nc(=O)n(C2CCOCC2)c(=O)[nH]1)c1ccc(F)cc1Cl [US20240262804, Example 162] |
| 2850 | C[C@H](Nc1nc(=O)n(CC(F)(F)F)c(=O)[nH]1)c1ccc(Cl)c(Cl)c1 [US20240262804, Example 173] |
| 4010 | Cc1ccn(-c2cccc([C@H](C)Nc3nc(=O)n(C4CCOCC4)c(=O)[nH]3)c2)n1 [US20240262804, Example 6] |
| 930 | C[C@H](Nc1nc(=O)n(C2CCOCC2)c(=O)[nH]1)c1cc(Cl)ccc1Cl [US20240262804, Example 163] |
